In patent publication US20250018048A1, “FLUCONAZOLE-COX INHIBITOR HYBRIDS: A DUAL-ACTING CLASS OF ANTIFUNGAL AZOLES” (Ramot at Tel-Aviv University Ltd., priority 2022, published 2025):
Converted amounts (≈) assume the structure as drawn. “Also recorded” adds a separate entry of the source.

What was measured:
Type in all cases: cell-based
[1] = tested on: C. parapsilosis ATCC 22019; experiment: Disk diffusion assay for antifungal tolerance; conditions: casitone agar, disk with 25 μg, 30° C.
Procedure: (§1) To investigate how tolerance is affected by the azole-COX inhibitor hybrids, a comparison of hybrids 1 and 5 to FLC and VOR in a disk diffusion assay was performed. Tolerance was evaluated by comparing the zone of inhibition after 24 h to that after 48 h. The assay was carried out on three representative strains: C. albicans, C. parapsilosis, and C. tropicalis (FIG. 7).
(§2) As shown, compared to FLC and VOR, azole-COX inhibitor hybrids 1 and 5 display reduced antifungal tolerance. Disk diffusion assays were carried out on casitone agar plates containing disks loaded with 25 μg of the tested hybrids. Plates were imaged after 24 h to evaluate antifungal activity (left half of the plate image) and after 48 h to evaluate tolerance (right half of the plate image).
(§3) Disk diffusion assay: Antifungal activities of select hybrids against C. albicans SN152, C. parapsilosis ATCC 22019, and C. tropicalis 660 were confirmed by the disk diffusion assay. Strains were streaked from frozen culture onto YPAD agar and incubated for 24 h at 30° C. Two or three colonies were placed into 1 mL of PBS solution, and OD600 was determined with a TECAN Infinite. OD600 was adjusted to 0.02 for C. albicans SN152 and to 0.025 for C. parapsilosis ATCC 22019 and C. tropicalis 660 by dilution with PBS. Aliquots of 200 μL of the diluted cultures of each strain were plated onto 15-mL casitone agar plates and spread using sterile beads (3 mm, Fisher Scientific). After the plates dried, a single disk (6-mm diameter, Becton Dickinson) with 25 μg of the hybrid being tested was placed in the center of each plate. Plates were then incubated at 30° C. and photographed under the same imaging conditions after 24 h and 48 h. FLC and VOR were used as control drugs.

C. tropicalis 660 = experiment: Disk diffusion assay for antifungal tolerance; conditions: casitone agar, disk with 25 μg, 30° C.
Procedure: as §1, §2, §3

C. albicans SN152 [2] = experiment: Disk diffusion assay for antifungal tolerance; conditions: casitone agar, disk with 25 μg, 30° C.
Procedure: as §1, §2, §3

[3] = tested on: erg11ΔΔ/erg3ΔΔ mutant C. albicans; experiment: Growth curve analysis of C. albicans lacking CYP51; conditions: YPAD, 30° C., 48 h
Procedure: The clinically used FLC and VOR act primarily by preventing ergosterol biosynthesis via inhibition of CYP51. Analysis was done to determine whether fungal growth inhibition by the hybrids required the presence of the ERG11 gene that encodes for CYP51. The antifungal activities of hybrids 1 and 5 and of FLC and VOR were determined against an erg11ΔΔ/erg3ΔΔ mutant C. albicans strain and against C. albicans SN152 from which this double knockout strain was derived (Table S2). […] Yeast growth was followed at OD600 over 48 h in 96-well plates containing serial double dilutions of the tested hybrids.
Cells of erg11ΔΔ/erg3ΔΔ mutant C. albicans were grown in YPAD media at 30° C. and treated with different concentrations of the tested hybrids. Growth was measured by recording the OD600 values every 40 minutes over a 48-h course on an automated plate reader.
Growth curve analyses: Growth curves were determined using the double-dilution method in 96-well plates. Starter cultures were streaked from glycerol stock onto YPAD agar plates and grown for 24 h at 30° C. Colonies were suspended in 1 mL PBS and diluted to 1×10^−3 OD600 and then diluted 1:100 into fresh medium. Hybrids dissolved in DMSO were added to YPAD broth (32 μL stock solution in 1218 μL of YPAD broth), and serial double dilutions of hybrids in YPAD were prepared in flat-bottomed 96-well microplates (Corning) to enable testing of concentrations ranging from 64 μg/mL to 1 μg/mL. Control wells with yeast cells but no drug (100% growth) and blank wells containing only YPAD (0% growth) were prepared. An equal volume (100 μL) of yeast suspensions in YPAD broth was added to each well with the exceptions of the blank wells. Growth was determined at 30° C. by measuring the OD600 using a plate reader (Infinite M200 PRO, Tecan) every 40 minutes over 48 h. Each concentration was tested in triplicate, and results were confirmed by two independent sets of experiments. FLC and VOR were used as control drugs.

[4] = tested on: panel of 16 representative strains of different species of the genus Candida; experiment: Antifungal activity (MIC80) against a panel of Candida strains, comparison; conditions: azole-susceptible strains
Procedure: The antifungal activities of the 24 azole-COX inhibitor hybrids were evaluated against a panel of 16 representative strains of different species of the genus Candida. Candida species cause both superficial and systemic infections. The panel included strains of C. albicans, C. glabrata, C. parapsilosis, C. tropicalis, C. guilliermondii, C. dubliniensis, and C. auris (Table S2). To evaluate antifungal activity, the minimal inhibitory concentration 80% (MIC80) values were determined, which were defined as the lowest drug concentrations with turbidity (measured at OD600) less than or equal to that of specific 1:5 dilutions of the growth control. As controls, FLC and VOR, were tested.
MIC80 values were determined using the broth microdilution method over a concentration range of 0.003-64 μg/mL. Orange circles represent C. albicans strains, yellow circles represent C. glabrata strains, and green circles represent C. parapsilosis, C. tropicalis, C. dubliniensis and C. auris. Cells were grown in YPAD medium at 30° C. (For C. auris strains 37° C.) 24 h. Each concentration was tested in triplicate, and results were confirmed in at least two independent experiments.
C. albicans, C. glabrata, C. parapsilosis, C. guilliermondii, C. tropicalis, and C. dubliniensis MICs were determined using CLSI M27-A3 guidelines with minor modifications. Starter cultures were streaked from glycerol stock onto YPAD agar plates and grown for 24 h at 30° C. Colonies were suspended in 1 mL PBS and diluted to 1×10^−3 OD600 and then diluted 1:100 into fresh medium. Hybrids dissolved in DMSO were added to YPAD broth (32 μL stock solution in 1218 μL of YPAD broth), and serial double dilutions of hybrids in YPAD were prepared in flat-bottomed 96-well microplates (Corning) to enable testing of concentrations ranging from 64 μg/mL to 0.003 μg/mL. Control wells with yeast cells but no drug and blank wells containing only YPAD were prepared. An equal volume (100 μL) of yeast suspensions in YPAD broth was added to each well with the exceptions of the blank wells. MIC values (Tables S4-S6) were determined after 24 h at 30° C. by measuring the OD600 using a plate reader (Infinite M200 PRO, Tecan). MIC values were defined as the point at which the OD600 was reduced by >80% compared to the no-drug wells. Each concentration was tested in triplicate, and results were confirmed by two independent sets of experiments. FLC and VOR were used as control drugs.

C. albicans SN152 [5] = experiment: MIC80 broth double-dilution assay; conditions: for MIC80 against C. albicans SN152: YPAD medium, 30° C., 24 h, parent strain of the erg11ΔΔ/erg3ΔΔ mutant; for MIC80: Candida albicans, SN152, 24 h, read-out: MIC80 against C. albicans SN152
How it was run: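 CLSI M27-A3-based broth microdilution in YPAD, cells diluted from 1×10^−3 OD600 suspension 1:100, hybrids double-diluted from 64 to 0.003 μg/mL. After 24 h at 30 °C, MIC80 is the OD600 reduction >80% versus no-drug wells; triplicate, two independent experiments.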

C. guilliermondii T-47 = experiment: MIC80 broth double-dilution assay; conditions: YPAD medium, 30° C., 24 h; for MIC80: Meyerozyma guilliermondii, T47, read-out: MIC80 against C. guilliermondii T-47
How it was run: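 Broth double dilution following modified CLSI M27-A3, YPAD medium, compound range 64 to 0.003 μg/mL; inoculum from 1×10^−3 OD600 suspension diluted 1:100. After 24 h at 30 °C, MIC80 taken as lowest concentration reducing OD600 by >80% versus no-drug control; triplicates, fluconazole and voriconazole as controls.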

[6] = entire range of concentrations (64 to 1 μg/mL)

Row | Compound | Tolerance: zone of inhibition after 48 h compared with 24 h [1] | Tolerance: zone of inhibition after 48 h compared with 24 h (C. tropicalis 660) | Tolerance: zone of inhibition after 48 h compared with 24 h (C. albicans SN152 [2]) | Effect on growth (OD600) of the double knockout mutant [3, 6] | Antifungal potency (MIC80) in comparison with FLC, VOR or the corresponding stereoisomer [4] | MIC80 against C. albicans SN152 (C. albicans SN152 [5]) [µg/mL] | MIC80 against C. guilliermondii T-47 (C. guilliermondii T-47) [µg/mL] | MIC80 (C. albicans SN152 [5]) [µg/mL] | MIC80 (C. guilliermondii T-47) [µg/mL] | Effect on growth (OD600) of the double knockout mutant ([3]; at 64 μg/mL, the highest concentration tested)
1 | C[C@H](C(=O)NC[C@](O)(Cn1cncn1)c1ccc(F)cc1F)c1ccc(-c2ccccc2)c(F)c1 [Hybrid 5] | reduced tolerance; also recorded: markedly lower than that to VOR | reduced tolerance | reduced tolerance | clear dose-dependent reduction in growth | lowest MIC80 values against all of the azole-susceptible strains; also recorded: more potent than the corresponding R-configured ibuprofen hybrid 6 | 0.007 (≈ 0.0146 µM) | 0.5 (≈ 1.04 µM) | – | – | –
2 | OC(Cn1cncn1)(Cn1cncn1)c1ccc(F)cc1F [FLC, fluconazole] | covered by drug tolerant colonies | the drug tolerant subpopulation was smaller | covered by drug tolerant colonies | no significant effect on the growth | – | – | – | 0.5 (≈ 1.63 µM) | 4 (≈ 13.1 µM) | –
3 | CC(C)Cc1ccc([C@H](C)C(=O)NC[C@](O)(Cn2cncn2)c2ccc(F)cc2F)cc1 [Hybrid 1] | reduced tolerance | reduced tolerance | reduced tolerance | clear dose-dependent reduction in growth | lowest MIC80 values against all of the azole-susceptible strains; also recorded: up to two orders of magnitude more potent than FLC and was as potent as VOR | 0.003 (≈ 0.00678 µM) | 0.06 (≈ 0.136 µM) | – | – | –
4 | C[C@@H](c1ncncc1F)[C@](O)(Cn1cncn1)c1ccc(F)cc1F [VOR, voriconazole, reference compound] | covered by drug tolerant colonies | the drug tolerant subpopulation was smaller | covered by drug tolerant colonies | – | – | – | – | 0.007 (≈ 0.02 µM) | 0.06 (≈ 0.172 µM) | Modest reduction in growth
